These results are taken from patent US5498628A, “Naphthamide derivatives” (Institut National de la Sante et de la Recherche Medicale, priority 1991, dated 1996).

Counter-ions that a name gives are not always drawn.

In series [1] the target is HUMAN D3 DOPAMINERGIC RECEPTOR (Homo sapiens, UniProt P35462). Put plainly: biochemical. As to conditions: read-out: Ki VALUE (inhibition constant for binding of [^125 I]iodosulpiride). As for the experimental part:
The inhibition constants for the binding of [^125 I]iodosulpiride to the D3 receptor were measured as described in the French Patent Application filed by INSERM on 6th Nov. 1990 under No. 90/13731.

In series [2] the test system is dopamine receptors. The experiment in a line: Antagonism of apomorphine-induced rearing in mice (dopamine receptor blockade in vivo). The settings on record: i.p. As for the experimental part:
(§1) The capacity to bring about a blockade of the dopamine receptors in vivo was evaluated for some of the compounds according to the invention. The tests used were the antagonism of stereotyped sniffing and rearing induced by apomorphine in mice. These tests have been described by Protais et al. (Psychopharmacology, 1976, 50:1-6) and by Vasse et al. (Naunyn Schmiedeberg's Arch. Pharmacol., 1985, 329:108-116).

In series [3] the test system is dopamine receptors. Put plainly: Antagonism of apomorphine-induced stereotyped sniffing in mice (dopamine receptor blockade in vivo). The settings on record: Mus musculus, ip, read-out: ID50 for the antagonism of sniffing. As for the experimental part:
as §1

By Ki is commonly meant the equilibrium dissociation constant of an inhibitor or competing ligand from its target.

Sequence of UniProt P35462 (P35462 whole entry): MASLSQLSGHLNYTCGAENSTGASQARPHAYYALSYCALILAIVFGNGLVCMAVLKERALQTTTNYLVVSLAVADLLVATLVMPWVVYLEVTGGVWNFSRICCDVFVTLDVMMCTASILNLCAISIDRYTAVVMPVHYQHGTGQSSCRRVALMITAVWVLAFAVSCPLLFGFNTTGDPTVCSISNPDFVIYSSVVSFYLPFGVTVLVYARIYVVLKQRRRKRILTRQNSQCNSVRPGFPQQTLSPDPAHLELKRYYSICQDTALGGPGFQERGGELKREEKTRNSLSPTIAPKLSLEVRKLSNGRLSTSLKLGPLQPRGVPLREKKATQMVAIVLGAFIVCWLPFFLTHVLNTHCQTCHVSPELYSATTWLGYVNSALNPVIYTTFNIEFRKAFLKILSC

As for `CCCCN1CCCC1CNC(=O)c1cc(Br)c2ccccc2c1OC` (stereo not drawn) [Example 1, N-[(N-1-butyl-2-pyrrolidinyl)methyl]-1-methoxy-4-bromo-2-naphthamide hydrochloride], the inhibition constant Ki in series [1] stood at 0.24 nM.

With `C=CCN1CCCC1CNC(=O)c1cc(C#N)c2ccccc2c1OC` (stereo not drawn) [Example 2, N-[(N-allyl-2-pyrrolidinyl)methyl]-1-methoxy-4-cyano-2-naphthamide], the Ki in series [1] stood at 0.51 nM.

Take `CCN1CCCC1CNC(=O)c1ccc2ccccc2c1OC` (stereo not drawn) [Example 4, N-[(N-Ethyl-2-pyrrolidinyl)methyl]-1-methoxy-2-naphthamide]: the Ki in series [1] is 35 nM.

Take `CCN1CCCC1CNC(=O)c1cc([N+](=O)[O-])c2ccccc2c1OC` (stereo not drawn) [Example 6, 4-Nitro-N-[(N-ethyl-2-pyrrolidinyl)methyl]-1-methoxy-2-naphthamide]: the Ki in series [1] was 0.3 nM.

Regarding `CCN1CCCC1CNC(=O)c1cc(Cl)c2ccccc2c1OC` (stereo not drawn) [Example 8, 4-Chloro-N-[(N-ethyl-2-pyrrolidinyl)methyl]-1-methoxy-2-naphthamide hydrochloride], the inhibition constant Ki in series [1] amounted to 0.26 nM. Besides, the ED50 in the series with dopamine receptors [2] (Mus musculus, ip, apomorphine-induced rearing, read-out: ID50 for the antagonism of rearing) was found to be 0.16 mg/kg; in the series with dopamine receptors [3], 0.42 mg/kg. Moreover, in the series on dopamine receptors [2] (inferred from ID50 values for rearing and sniffing), the “crossing of the blood-brain barrier” value is “readily crosses the blood-brain barrier”.

As for `COc1c(C(=O)NCC2CCCN2Cc2ccccc2)ccc2ccccc12` (stereo not drawn) [Example 11, N-[(N-Benzyl-2-pyrrolidinyl)methyl]-1-methoxy-2-naphthamide hydrochloride], in series [1], the Ki was determined as 91 nM.

With `COc1c(C(=O)NCC2CCCN2Cc2ccccc2)cc([N+](=O)[O-])c2ccccc12` (stereo not drawn) [Example 12, 4-Nitro-N-[(N-benzyl-2-pyrrolidinyl)methyl]-1-methoxy-2-naphthamide], in series [1], the Ki is 1.7 nM.

With `COc1c(C(=O)NCC2CCCN2Cc2ccccc2)cc(Cl)c2ccccc12` (stereo not drawn) [Example 13, 4-Chloro-N-[(N-benzyl-2-pyrrolidinyl)methyl]-1-methoxy-2-naphthamide], the Ki in series [1] was found to be 4.7 nM.

With `C=CCN1CCCC1CNC(=O)c1cc([N+](=O)[O-])c2ccccc2c1OC` (stereo not drawn) [Example 17], the Ki in series [1] turned out to be 0.35 nM.
